Reference: US12552846B2, “Modified BCL9 mimetic peptides” (Sapience Therapeutics, Inc., priority 2019, dated 2026)
Square brackets hold non-standard residues; d marks the D form. Peptide text beside a SMILES is read from it.

Key:
MCF7 breast cancer cells = assay: MCF7 subcutaneous tumor model, tumor volume; format: in vivo, NU/J mice
Method: In this experiment, we examined the effect of peptide BCL-26 on tumor volume in an MCF7 subcutaneous tumor model. Briefly, 2×10^6 MCF7 breast cancer cells, suspended 1:1 in Matrigel, were implanted via subcutaneous injection into the axilla of NU/J mice. Peptide BCL-26 was administered at a dose of 12.5 mg/kg via subcutaneous injection three times weekly for three weeks. Dosing was initiated on day 2 post tumor inoculation, with an average starting tumor volume of about 25 mm^3.
We also examined the effect of BCL9 mimetic peptides in established tumors. MCF7 cells were implanted into mice as described above. Peptide BCL-87 was administered at a dose of 5 mg/kg via subcutaneous injection three times weekly for three weeks. Dosing was initiated on day 21 post tumor inoculation, with an average starting tumor volume of about 470 mm^3.
We additionally examined the effect of different concentrations of mimetic peptides in established tumors. MCF7 cells were implanted into mice as described above. Peptides BCL-27 and BCL-87 were administered at a dose of 1 mg/kg or 5 mg/kg via subcutaneous injection three times weekly for three weeks. Dosing was initiated on day 14 post tumor inoculation, with an average starting tumor volume of about 340 mm^3.

[1] = system: HL60 promyelocytic leukemia cells; assay: Cytotoxicity assay in HL60 cells (Annexin V FITC / PI flow cytometry); format: cell-based; conditions: 48 hours, 0-80 μM, % Viability (Annexin V low, PI low)
Method in brief: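 HL60 cells at 3.5×10^3/well in RPMI + 1.5% FBS exposed to peptides at 0-80 μM final for 48 h at 37 °C. Viability by flow cytometry after Annexin V-FITC/PI staining, gated on FSC vs SSC. % Viability is the fraction that is Annexin V^low and PI^low.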

[2] = system: MCF-7 breast cancer cells; assay: MTT cell viability / anti-proliferative assay in MCF-7 cells; format: cell-based; conditions: MCF7 cells, compared to peptide ST-BC1
Method: MCF-7 breast cancer cells set at a density of 2.5×10^4 cells/well in 150 μL of MEM medium+10% fetal bovine serum (FBS) in a 96 well dish. Lyophilized BCL9 peptides were reconstituted at a concentration of 10 mg/mL in 270 mM trehalose buffer and added to each well at a volume of 50 μL to a final concentration range of 2.5-40 μM. Cells were incubated with BCL9 peptides for 96 hours at 37° C.
Cell viability was quantified by spectrophotometry using Roche MTT cell proliferation assay kit according to manufacturer's instructions. Briefly, cells were washed with PBS, and incubated in fresh MEM medium with 10% FBS, 1% penicillin/streptomycin, and 1% non-essential amino acids, plus 10 μL MTT reagent at 37° C. for 4 hours. After 4 hours, 100 μL of solubilization solution was added, and cells were incubated overnight at 37° C. and 5% carbon dioxide. Absorbance was measured at OD570 nm with a reference of OD650 nm. The degree of absorption is proportional to the number of living cells. Percentage of absorbance relative to untreated controls was quantified and presented as % Cell Viability.
In functional assays, EC50 is the concentration that reduces a biological response by 50% of its maximum. In the case of BLC9 peptides, EC50 is measured as the concentration that reduces cell viability by 50% of its maximum. EC50 can be calculated by any number of means known in the art.

With CC(C)C[C@@H](NC(=O)[C@@H](CCCNC(=N)N)NC(=O)[C@@H](C)NC(=O)[C@@H](CC(C)C)NC(=O)[C@@H](CCC(N)=O)NC(=O)[C@@H](CCCNC(=N)N)NC(=O)[C@@H](C)NC(=O)[C@@H](CC(C)C)NC(=O)[C@@H](Cc1c[nH]c2ccccc12)NC(=O)[C@@H](Cc1c[nH]c2ccccc12)NC(=O)CNC(=O)[C@@H](CCCNC(=N)N)NC(=O)CNC(=O)[C@@H](CC(=O)O)NC(=O)[C@@H](CO)NC(=O)[C@H]1CCCN1)C(=O)N[C@H](C)C(=O)N[C@H](CCC(N)=O)C(=O)N[C@H](CC(C)C)C(=O)N[C@H](C)C(=O)N[C@H](CCCCN)C(=O)N[C@H](CC(C)C)C(=O)N[C@@H](C(=O)N1CCC[C@@H]1C(=O)N[C@@H](C(=O)O)C(C)C)[C@H](C)O [BCL-87] (H-[dP][dS][dD]G[dR]G[dW][dW][dL][dA][dR][dQ][dL][dA][dR][dL][dA][dQ][dL][dA][dK][dL][dT][dP][dV]-OH; N-terminus and C-terminus assumed) the “tumor volume relative to vehicle and to peptide control BCL-134” value (MCF7 breast cancer cells; 1 mg/kg or 5 mg/kg s.c. three times weekly for three weeks, dosing from day 14, starting tumor about 340 mm^3, p≤0.0004) was “significantly reduced tumor volume”, the “tumor volume relative to vehicle” value (MCF7 breast cancer cells; 5 mg/kg s.c. three times weekly for three weeks, dosing from day 21, starting tumor about 470 mm^3, p<0.005) was “significantly reduced tumor volume” and the EC50 [1] was 2 to 10 µM.
For “YGRKKRRQRRRLSQEQLEHRERSLQTLRDIQRMLF [BCL-21, TAT cell-penetrating region plus native BCL9 HD2 domain]”, the anti-proliferative activity [2] was “inefficient at inhibiting cell proliferation”.
